Laboratory results reported in patent EP4786466A1, “QUINAZOLINE DERIVATIVE, SALT THEREOF, AND PHARMACEUTICAL COMPOSITION COMPRISING SAME AS ACTIVE INGREDIENT” (Korea Research Institute of Chemical Technology, priority 2023, dated 2025).
Like-named read-outs stand apart in the source and are kept apart here.

Assays:
[1] = target: T1, Recombinant GST-TAG-MASTL (Homo sapiens, UniProt Q96GX5); experiment: HTRF-based kinase assay (HTRF KinEASE assay kit); type: biochemical; details: for activity at 1 µM: read-out: MASTL activity (%) HTRF (1 µM); for activity at 10 µM: footnote b: concentration 10 µM
T1 construct: GST; purchased Thermo Fisher Scientific
T1 sequence (Q96GX5 1-879): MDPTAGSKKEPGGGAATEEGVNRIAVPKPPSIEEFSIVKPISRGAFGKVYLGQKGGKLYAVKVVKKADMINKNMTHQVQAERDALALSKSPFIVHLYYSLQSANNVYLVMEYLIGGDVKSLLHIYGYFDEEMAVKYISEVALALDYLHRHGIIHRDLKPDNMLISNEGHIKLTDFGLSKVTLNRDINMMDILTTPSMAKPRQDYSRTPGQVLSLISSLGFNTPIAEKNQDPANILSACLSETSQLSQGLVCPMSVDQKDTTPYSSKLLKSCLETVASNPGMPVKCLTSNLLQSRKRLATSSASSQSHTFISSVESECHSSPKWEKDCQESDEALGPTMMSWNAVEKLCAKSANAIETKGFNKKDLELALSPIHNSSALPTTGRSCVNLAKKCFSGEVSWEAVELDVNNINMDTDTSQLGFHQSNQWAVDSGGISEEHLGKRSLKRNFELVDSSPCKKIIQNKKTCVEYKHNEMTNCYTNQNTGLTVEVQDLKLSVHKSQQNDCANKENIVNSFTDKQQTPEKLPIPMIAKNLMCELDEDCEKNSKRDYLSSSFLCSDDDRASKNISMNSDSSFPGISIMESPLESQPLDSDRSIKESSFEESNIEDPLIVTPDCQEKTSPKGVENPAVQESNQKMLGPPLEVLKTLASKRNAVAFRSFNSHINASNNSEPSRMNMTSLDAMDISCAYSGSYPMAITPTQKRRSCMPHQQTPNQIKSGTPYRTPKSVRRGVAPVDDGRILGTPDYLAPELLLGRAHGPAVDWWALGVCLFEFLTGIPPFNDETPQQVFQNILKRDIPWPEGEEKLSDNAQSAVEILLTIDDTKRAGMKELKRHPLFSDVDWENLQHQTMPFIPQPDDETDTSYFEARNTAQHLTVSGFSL
Text: Recombinant GST-TAG-MASTL (Thermo Fisher Scientific, MA, USA) was used for HTRF-based kinase assays. The HTRF KinEASE assay kit (CisBio, MA, USA) was used according to the manufacturer's instructions.

[2] = in vitro; details: human
Method: (§1) MCF7 breast cancer cell lines and MCF10A normal breast cancer cell lines were treated with serial dilutions of the compounds of the present invention ranging from 1 µM to 15.63 nM for 72 hours. Cell viability was measured by the WST-8 assay (Cyto XTM cell viability assay kit; LPS solution, Daejeon, Korea) according to the manufacturer's instructions.

[3] = system: MCF7 breast cancer cell lines; experiment: Cell viability analysis, WST-8 assay, MCF7; details: for viability at 1.1 µM: read-out: Cell viability (%) WST-8, MCF7, footnote d: concentration 1.1 µM, 72 hours; for viability at 1 µM: read-out: Cell viability (%) WST-8, MCF7 (1 µM), compound 1 µM, 72 hours; for viability at 1.25 µM: read-out: Cell viability (%) WST-8, MCF7, footnote a: concentration 1.25 µM, 72 hours
Method: as §1

[4] = system: pENSA; experiment: pENSA level by immunofluorescence (described method: in vitro kinase analysis with GST-tag-MASTL and His-tag-ENSA); type: cell-based
Method: Two recombinant GST-tag-MASTL (Thermo Fisher Scientific) and His-tag-ENSA (Sino Biological Inc., Beijing, China) were used for in vitro kinase analysis. In vitro kinase analysis was performed as described in the literature [Front Oncol 2020, 10, 571601, 39-202021-10-20doi:10.3389/fonc.2020.571601.].
Phosphorylated ENSA (pENSA), which is activated by phosphorylation by MASTL, can be utilized as a biomarker as it is expected that its activity will be inhibited along with the inhibition of MASTL. In the cell viability assay, MCF7 refers to a breast cancer cell line, and MCF10A refers to a normal breast […] cell line.

[5] = read-out: MASTL activity (%) HTRF

Compound: Cc1nn(C)c(C)c1Nc1nc(Nc2ccc(CC#N)cc2)nc2ccccc12 [3c, 2-(4-((4-((1,3,5-trimethyl-1G-pyrazol-4-yl)amino)quinazolin-2-yl)amino)phenyl)acetonitrile]
- activity at 1 µM [1]: 123%
- viability at 1.1 µM ([2]; mcf10a cells): 115%
- viability at 1.1 µM ([3]; Homo sapiens, MCF7, 72 h): 110%

Compound: CNC(=O)c1ccc(Nc2nc(Nc3cc(C4CC4)[nH]n3)c3ccccc3n2)cc1 [4ae, 4-((4-((5-cyclopropyl-1G-pyrazol-3-yl)amino)quinazolin-2-yl)amino)-M-methylbenzamide]
- activity at 1 µM ([1]; compound 1 µM): 41.7%
- viability at 1 µM ([2]; mcf10a cells): 70.5%
- viability at 1 µM ([3]; Homo sapiens, MCF7, 72 h): 72.8%

Compound: CCNC(=O)c1ccc(Nc2nc(Nc3cc(C4CC4)[nH]n3)c3ccccc3n2)cc1 [4af, 4-((4-((5-cyclopropyl-1G-pyrazol-3-yl)amino)quinazolin-2-yl)amino)-M-ethylbenzamide]
- activity at 1 µM ([1]; compound 1 µM): 49.6%
- viability at 1 µM ([2]; mcf10a cells): 66.5%
- viability at 1 µM ([3]; Homo sapiens, MCF7, 72 h): 66.6%

Compound: CC(C)(C)OC(=O)N1CC2C(C1)C2Nc1nc(Nc2cc(C3CC3)[nH]n2)c2ccccc2n1 (stereo not drawn) [4ag, sdqs-butyl 6-((4-((5-cyclopropyl-1G-pyrazol-3-yl)amino)quinazolin-2-yl)amino)-3-azabicyclo[3.1.0]hexane-3-carboxylate]
- activity at 1 µM ([1]; compound 1 µM): 67.1%
- viability at 1 µM ([2]; mcf10a cells): 74.5%
- viability at 1 µM ([3]; Homo sapiens, MCF7, 72 h): 56.4%

Compound: Cc1n[nH]c(C)c1Nc1nc(Nc2ccc(CC#N)cc2)nc2ccccc12 [compound 3d, 2-(4-((4-((3,5-dimethyl-1G-pyrazol-4-yl)amino)quinazolin-2-yl)amino)phenyl)acetonitrile]
- activity at 1 µM [1]: 93.7%
- viability at 1.1 µM ([2]; mcf10a cells): 101%
- viability at 1.1 µM ([3]; Homo sapiens, MCF7, 72 h): 132%

Compound: N#CCc1ccc(Nc2nc(Nc3cn[nH]c3)c3ccccc3n2)cc1 [compound 3f, 2-(4-((4-((1G-pyrazol-4-yl)amino)quinazolin-2-yl)amino)phenyl)acetonitrile]
- activity at 1 µM [1]: 92.5%
- viability at 1.1 µM ([2]; mcf10a cells): 98.3%
- viability at 1.1 µM ([3]; Homo sapiens, MCF7, 72 h): 117%

Compound: CC(C)S(=O)(=O)c1ccccc1Nc1nc(Nc2ccc(CC#N)cc2)nc2ccccc12 [compound 3g, 2-(4-((4-((2-(isopropylsulfonyl)phenyl)amino)quinazolin-2-yl)amino)phenyl)acetonitrile]
- activity at 3.3 µM ([1]; footnote c: concentration 3.3 µM): 127%
- viability at 1.1 µM [2]: 99.7%
- viability at 1.1 µM ([3]; Homo sapiens, MCF7, 72 h): 109%

Compound: N#CCc1ccc(Nc2nc(Nc3ccc(Cl)nn3)c3ccccc3n2)cc1 [compound 3i, 2-(4-((4-((6-chloropyridazin-3-yl)amino)quinazolin-2-yl)amino)phenyl)acetonitrile]
- activity at 1 µM ([1]; compound 1 µM): 126%
- viability at 1 µM [2]: 51.8%
- viability at 1 µM ([3]; Homo sapiens, MCF7, 72 h): 95.6%

Compound: N#CCc1ccc(Nc2nc(NC3=NC(=O)CS3)c3ccccc3n2)cc1 [compound 3j, 2-(4-((4-((4-oxo-4,5-dihydrothiazol-2-yl)amino)quinazolin-2-yl)amino)phenyl)acetonitrile]
- activity at 1 µM ([1]; compound 1 µM): 92.5%
- viability at 1 µM [2]: 84.2%
- viability at 1 µM ([3]; Homo sapiens, MCF7, 72 h): 108%

Compound: N#CCc1ccc(Nc2nc(Nc3ccccc3F)c3ccccc3n2)cc1 [compound 3k, 2-(4-((4-((2-fluorophenyl)amino)quinazolin-2-yl)amino)phenyl)acetonitrile]
- activity at 1 µM ([1]; compound 1 µM): 99.1%
- viability at 1 µM [2]: 96.6%
- viability at 1 µM ([3]; Homo sapiens, MCF7, 72 h): 120%

Compound: N#CCc1ccc(Nc2nc(Nc3nnc(C4CC4)s3)c3ccccc3n2)cc1 [compound 3l, 2-(4-((4-((5-cyclopropyl-1,3,4-thiadiazol-2-yl)amino)quinazolin-2-yl)amino)phenyl)acetonitrile]
- activity at 1 µM ([1]; compound 1 µM): 114%
- viability at 1 µM [2]: 104%
- viability at 1 µM ([3]; Homo sapiens, MCF7, 72 h): 80.5%

Compound: N#CCc1ccc(Nc2nc(Nc3cccc(N)c3)c3ccccc3n2)cc1 [compound 3n, 2-(4-((4-((3-aminophenyl)amino)quinazolin-2-yl)amino)phenyl)acetonitrile]
- activity at 1 µM ([1]; compound 1 µM): 125%
- viability at 1 µM [2]: 95.2%
- viability at 1 µM ([3]; Homo sapiens, MCF7, 72 h): 117%

Compound: CNc1nc(Nc2cc(C3CC3)[nH]n2)c2ccccc2n1 [compound 4cb, N^4-(5-cyclopropyl-1H-pyrazol-3-yl)-N^2-methylquinazoline-2,4-diamine]
- activity at 10 µM [1, 5]: 53.1%
- viability at 1.25 µM [2]: 102%
- viability at 1.25 µM ([3]; Homo sapiens, MCF7, 72 h): 87.5%

Compound: CC(C)(C)OC(=O)N1CC2C(C1)C2Nc1nc(Nc2cc(C3CC3)[nH]n2)c2ccccc2n1 (stereo not drawn) [compound 4cg, tert-butyl 6-((4-((5-cyclopropyl-1H-pyrazol-3-yl)amino)quinazolin-2-yl)amino)-3-azabicyclo[3.1.0]hexane-3-carboxylate]
- MASTL activity (%) HTRF (1 µM) ([1]; compound 1 µM, 1 µM): 76.4%
- viability at 1 µM [2]: 117%
- Cell viability (%) WST-8, MCF7 (1 µM) ([3]; compound 1 µM, 72 hours, 1 µM): 73.6%

Compound: N#Cc1ccc(CNc2nc(Nc3cc(C4CC4)[nH]n3)c3ccccc3n2)cc1 [compound 4ch, 4-(((4-((5-cyclopropyl-1G-pyrazol-3-yl)amino)quinazolin-2-yl)amino)methyl)benzonitrile]
- activity at 1 µM [1]: 43%
- viability at 1 µM ([2]; mcf10a cells): 32%
- viability at 1 µM ([3]; Homo sapiens, MCF7, 72 h): 73.6%

Compound: N#Cc1ccc(Nc2nc(Nc3cc(C4CC4)[nH]n3)c3ccccc3n2)cc1 [compound 4d, 4-((4-((5-cyclopropyl-1G-pyrazol-3-yl)amino)quinazolin-2-yl)amino)benzonitrile]
- IC50 [1]: 625 nM
- activity at 1.25 µM [1, 5]: 32.6%
- viability at 1.25 µM ([2]; mcf10a cells): 3.2%
- viability at 1.25 µM ([3]; Homo sapiens, MCF7, 72 h): 5.6%
- selectivity for breast cancer cells over normal cells in the cell viability assay ([3]; MCF7 versus MCF10A): selectively inhibit only breast cancer cells

Compound: CC(C)NC(=O)N1CC2CC1CN2c1nc(Nc2cc(C3CC3)[nH]n2)c2ccccc2n1 (stereo not drawn) [compound 15b, 5-(4-((5-cyclopropyl-1G-pyrazol-3-yl)amino)quinazolin-2-yl)-M-isopropyl-2,5-diazabicyclo[2.2.1]heptane-2-carboxamide]
- viability at 1 µM ([2]; mcf10a cells): 77.2%
- viability at 1 µM ([3]; Homo sapiens, MCF7, 72 h): 75.3%

Compound: O=S(=O)(c1ccc2ccccc2c1)N1CC2CC1CN2c1nc(Nc2cc(C3CC3)[nH]n2)c2ccccc2n1 (stereo not drawn) [compound 15y, M-(5-cyclopropyl-1G-pyrazol-3-yl)-2-(5-(naphthalen-2-ylsulfonyl)-2,5-diazabicyclo[2.2.1]heptan-2-yl)quinazolin-4-amine]
- IC50 ([1]; HTRF, read-out: IC50(nM) MASTL activity): 928 nM
- activity at 10 µM [1, 5]: 18.5%
- pENSA (%) Immunofluor ecense ([4]; footnote b: concentration 10 µM): 35.5^b %
- IC50 ([4]; unit µM, read-out: IC50 pENSA): 6.9 µM
- viability at 10 µM ([3]; Homo sapiens, MCF7, 72 h, read-out: Cell viability (%) WST-8, MCF7, footnote b: concentration 10 µM, 72 hours): 64.1%
- IC50 ([3]; Homo sapiens, MCF7, 72 h, read-out: IC50 Cell viability (MCF7)): 8.2 µM

Compound: Cc1cc(Nc2nc(N3CC4CC3CN4C(=O)NC(C)C)nc3ccccc23)n[nH]1 (stereo not drawn) [compound 27a, M-isopropyl-5-(4-((5-methyl-1G-pyrazol-3-yl)amino)quinazolin-2-yl)-2,5-diazabicyclo[2.2.1]heptane-2-carboxamide]
- viability at 1 µM ([2]; mcf10a cells): 90.7%
- viability at 1 µM ([3]; Homo sapiens, MCF7, 72 h): 95.6%

Compound: Cc1cc(Nc2nc(N3CC4CC3CN4C(=O)Nc3ccccc3)nc3ccccc23)n[nH]1 (stereo not drawn) [compound 27b, 5-(4-((5-methyl-1G-pyrazol-3-yl)amino)quinazolin-2-yl)-M-phenyl-2,5-diazabicyclo[2.2.1]heptane-2-carboxamide]
- viability at 1 µM ([2]; mcf10a cells): 36.1%
- viability at 1 µM ([3]; Homo sapiens, MCF7, 72 h): 83.2%

Compound: CC(C)NC(=O)N1CC2CC1CN2c1nc(Nc2cn[nH]c2)c2ccccc2n1 (stereo not drawn) [compound 28a, 5-(4-((1G-pyrazol-4-yl)amino)quinazolin-2-yl)-M-isopropyl-2,5-diazabicyclo[2.2.1]heptane-2-carboxamide]
- viability at 1.25 µM ([2]; mcf10a cells): 93.9%
- viability at 1 µM ([3]; Homo sapiens, MCF7, 72 h): 99%

Compound: O=C(Nc1ccccc1)N1CC2CC1CN2c1nc(Nc2cn[nH]c2)c2ccccc2n1 (stereo not drawn) [compound 28b, 5-(4-((1G-pyrazol-4-yl)amino)quinazolin-2-yl)-M-phenyl-2,5-diazabicyclo[2.2.1]heptane-2-carboxamide]
- viability at 1 µM ([2]; mcf10a cells): 37%
- viability at 1 µM ([3]; Homo sapiens, MCF7, 72 h): 91.2%
